# Read-outs that look alike come from different tables or passages of the source.
# Assays:
# [1] = tested on: P. falciparum 3D7 ring, trophozoite and schizont stages; assay: Stage-specific parasite inhibition assay; type: cell-based, Plasmodium falciparum; settings: 40 µM for 12 hours at ring, trophozoite or schizont stage; reinvasion parasitemia at 50 hpi and after 1:40 dilution and 4 days
# Procedure: The activity of An-cecB against different blood stage parasites was evaluated. Parasites were exposed to An-cecB at a lethal concentration of 40 µM for 12 hours at the ring stage [[…] (hours post invasion)], trophozoite stage (17–29 hpi), and schizont stage (29–41 hpi) (Fig. 2a). […] Parasites were then washed and cultured for 4 days […].
# To analyze the stage-specific parasite inhibition, highly synchronized ring-stage parasites of the 3D7 strain were cultured in 48-well plates with a starting parasitemia of 0.5% ~ 1% at a hematocrit of 2%. The tested peptide at a concentration of 40 µM was added to ring stage parasites (5 hpi), trophozoites (17 hpi), and schizonts (29 hpi). After treatment for 12 hours, the parasites were washed three times to remove the peptide and the re-invaded parasites (50 hpi) were analyzed. The parasitemia (50hpi) was diluted 1:40 by new RBCs and cultured for a further 4 days. CM was used as a blank control. Parasitemia was counted under a microscope.
# Bacillus subtilis (ATCC) = assay: Antimicrobial assay, broth dilution; type: cell-based; settings: B. subtilis
# Procedure: (§1) Gram-positive bacteria S. aureus, B. subtilis, and Gram-negative E. coli were used in antimicrobial assays. Bacteria were first grown in LB (Luria-Bertani) broth to an absorbance of 0.8 at 600 nm. The antibacterial behavior of the peptides was studied via the agar disc diffusion assay and broth microdilution method ([41], [42]). The agar plates were made by pouring 20 mL of LB broth containing 1.5% agar into 60-mm Petri dishes. Then, a 100-µL bacterial suspension (10^6 CFU/mL) was spread over the LB agar plate. Ten microliters of the 2-mg/mL peptide sample was carefully dropped onto sterile 2-mm diameter paper discs that had been previously attached to the plate. The plates were carefully placed in an incubator at 37°C for 24 hours. If an examined sample had antimicrobial activity, a clear zone was observed around the filter paper representing inhibition of bacterial growth. The MIC was determined by the broth dilution method, and the absorbance value was measured at an optical density at 600 nm (OD600) to determine the inhibition rate of peptides at different concentrations against each bacteria. Then, the MIC at which no visible growth occurred was recorded ([38]). The MIC50 was calculated by GraphPad Prism.
# [2] = tested on: Escherichia coli (ATCC 25922); assay: Antimicrobial assay, broth dilution; type: cell-based; settings: E. coli
# Procedure: as §1
# [3] = tested on: Staphylococcus aureus (ATCC 6538); assay: Antimicrobial assay, broth dilution; type: cell-based; settings: S. aureus
# Procedure: as §1
# [4] = tested on: methyl-β-cyclodextrin-treated RBCs; assay: Hemolytic activity on cholesterol-depleted erythrocytes; type: cell-based, human; settings: RBCs treated with 7.5 mM methyl-β-cyclodextrin for 2 hours at 37°C
# Excerpt: Cholesterol is the main component of the RBC membrane and is important for maintaining its stability ([39]). Plasmodium falciparum infection efficiently depletes the red blood cells of cholesterol, which renders […] membranes susceptible to lysis ([40]). Therefore, methyl-β-cyclodextrin treatment was used to simulate the RBC cholesterol depletion caused by infection with Plasmodium. RBCs were washed once and then resuspended with PBS at 0.5% hematocrit. After treatment with the indicated concentration (7.5 mM) of methyl-β-cyclodextrin (Sigma) in RPMI for 2 hours at 37°C, the treated RBCs were washed with PBS and hemolysis assays were performed as described above. Two independent tests with five technical replicates were performed for each hemolysis assay.
# [5] = tested on: Plasmodium berghei (ANKA); type: in vivo; settings: for Inhibition (%) of P. berghei growth: parasitemia on day 4, BALB/c mice
# Procedure: The in vivo antimalarial activity of peptides was evaluated using a 4-day suppressive test in P. berghei-infected mouse model mice ([44]). The mice were divided into five groups of six mice. Donor mice were infected with 200 µL of P. berghei parasite inoculum by intraperitoneal injection. Parasitized blood was collected from the tail vein of donor mice and diluted with 0.9% sodium chloride solution. Mice were then infected with saline suspension of 1 × 10^7 parasitized erythrocytes (0.2 mL) by intraperitoneal injection (Day0). Four hours after infection, each of the three groups of mice was treated with peptide by intraperitoneal injection at daily doses of 10, 25, and 50 mg/kg for 4 consecutive days. Positive control mice were treated with chloroquine at daily doses of 10 mg/kg and negative control mice with normal saline. On day 4 (96 hours post infection), the parasitemia of each mouse was determined under a light microscope by examination of Giemsa’s solution-stained thin blood smears prepared from mouse tail blood ([28]). The mean parasitemia in each group of mice was used to calculate the % suppression for each dose using the following formula:
# %suppression = (parasitemia of negative control − parasitemia of test) * 100/parasitemia of negative control.
# The antimalarial activity of the peptides was determined from the ratio of the percentage of parasite reduction in treated and negative control groups ([44]). Results were expressed as median (range) values.
# [6] = tested on: healthy erythrocytes (human RBCs)
sequence,measurement,setting,value
APRWKFGKRLEKLGRNVFRAA KKALPVIAGYKAL-NH2 [An-cecB],activity against different blood stage parasites,[1],All parasite stages were killed
same,MIC,Bacillus subtilis (ATCC); OD600,3.75 µM
same,MIC50,"Bacillus subtilis (ATCC); OD600, GraphPad Prism",0.85 µM
same,MIC,[2]; OD600,3.75 µM
same,MIC50,"[2]; OD600, GraphPad Prism",0.63 µM
same,MIC,[3]; OD600,30 µM
same,MIC50,"[3]; OD600, GraphPad Prism",7.314 µM
same,hemolysis of cholesterol-depleted erythrocytes,[4],significantly higher than that of controls
same,Inhibition (%) of P. berghei growth,[5]; 10 mg/kg daily i.p. for 4 consecutive days,0.63%
same,Inhibition (%) of P. berghei growth,[5]; 25 mg/kg daily i.p. for 4 consecutive days,5.12%
same,mortality of infected mice in the 4-day suppressive test,[5]; in vivo,all infected mice died before the end of the experiment
same,CC50,HepG2 cells,60.43 µM
same,hemolysis rate,[6]; 10 µM,less than 2%
same,hemolysis rate,[6]; 20 µM,less than 2%
same,hemolysis rate,[6]; 40 µM,less than 5%

# — PMC11232398, “Antimalarial activity of cecropin antimicrobial peptides derived from Anopheles mosquitoes” (Antimicrobial Agents and Chemotherapy, 2024)
